According to ChEMBL document CHEMBL1137331 (J Med Chem, 2006):

Assays:
[1] = target: Proto-oncogene tyrosine-protein kinase LCK (Mus musculus, UniProt P06240)
Description: Inhibition of murine Lck in presence of ATP

[2] = target: Tyrosine-protein kinase Lck (Homo sapiens, UniProt P06239)
Description: Inhibition of human Lck in presence of ATP

[3] = system: T-cell; experiment: Inhibition of anti CD3/anti CD28-induced T cell proliferation; format: functional, cell-based; conditions: Homo sapiens
[4] = system: Mus musculus; experiment: Inhibition of anti CD3/anti CD28-induced IL2 production in po dosed BALB/c mouse; format: functional
[5] = system: Rattus norvegicus; experiment: Volume of distribution in rat at 10 mg/kg, iv and po; format: ADME, organism-based; parameters: dose 10 mg/kg, route oral; conditions: in vivo
[6] = target: Tyrosine-protein kinase Lyn (Homo sapiens, UniProt P07948); experiment: Inhibition of Lyn
[7] = system: PBMC; experiment: Inhibition of LPS-induced TNFalpha production in human PBMC; format: functional, cell-based
[8] = target: Fibroblast growth factor receptor 1 (Homo sapiens, UniProt P11362); experiment: Inhibition of FGFR1
[9] = target: Tyrosine-protein kinase Fgr (Homo sapiens, UniProt P09769); experiment: Inhibition of Fgr
[10] = target: Receptor tyrosine-protein kinase erbB-2 (Homo sapiens, UniProt P04626); experiment: Inhibition of Her2
[11] = system: Mus musculus; experiment: Inhibition of LPS-induced TNFalpha production in C57BL/6 mouse at 60 mg/kg, po; conditions: C57BL/6, po
[12] = target: Tyrosine-protein kinase Yes (Homo sapiens, UniProt P07947); experiment: Inhibition of Yes
[13] = target: Proto-oncogene tyrosine-protein kinase Src (Homo sapiens, UniProt P12931); experiment: Inhibition of Src in presence of ATP
[14] = target: Proto-oncogene tyrosine-protein kinase LCK (Mus musculus) (UniProt P06240); conditions: 50 uM
Chain of Proto-oncogene tyrosine-protein kinase LCK (Mus musculus) (P06240 2-509 limits assumed): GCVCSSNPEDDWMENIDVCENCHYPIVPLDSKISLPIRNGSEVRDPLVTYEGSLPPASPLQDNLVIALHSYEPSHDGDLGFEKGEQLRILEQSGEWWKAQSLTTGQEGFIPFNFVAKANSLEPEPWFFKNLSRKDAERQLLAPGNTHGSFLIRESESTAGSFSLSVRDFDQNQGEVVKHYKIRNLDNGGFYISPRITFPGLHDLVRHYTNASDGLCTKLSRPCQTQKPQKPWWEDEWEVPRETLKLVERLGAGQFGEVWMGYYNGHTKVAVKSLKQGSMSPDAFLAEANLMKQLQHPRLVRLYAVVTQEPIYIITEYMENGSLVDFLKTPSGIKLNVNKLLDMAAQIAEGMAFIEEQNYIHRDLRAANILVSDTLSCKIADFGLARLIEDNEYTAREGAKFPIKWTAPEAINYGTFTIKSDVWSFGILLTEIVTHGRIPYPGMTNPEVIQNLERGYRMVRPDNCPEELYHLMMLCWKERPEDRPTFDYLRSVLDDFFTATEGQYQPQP
Description: Inhibition of murine Lck at 50 uM

Chain of Proto-oncogene tyrosine-protein kinase LCK (P06240 whole entry): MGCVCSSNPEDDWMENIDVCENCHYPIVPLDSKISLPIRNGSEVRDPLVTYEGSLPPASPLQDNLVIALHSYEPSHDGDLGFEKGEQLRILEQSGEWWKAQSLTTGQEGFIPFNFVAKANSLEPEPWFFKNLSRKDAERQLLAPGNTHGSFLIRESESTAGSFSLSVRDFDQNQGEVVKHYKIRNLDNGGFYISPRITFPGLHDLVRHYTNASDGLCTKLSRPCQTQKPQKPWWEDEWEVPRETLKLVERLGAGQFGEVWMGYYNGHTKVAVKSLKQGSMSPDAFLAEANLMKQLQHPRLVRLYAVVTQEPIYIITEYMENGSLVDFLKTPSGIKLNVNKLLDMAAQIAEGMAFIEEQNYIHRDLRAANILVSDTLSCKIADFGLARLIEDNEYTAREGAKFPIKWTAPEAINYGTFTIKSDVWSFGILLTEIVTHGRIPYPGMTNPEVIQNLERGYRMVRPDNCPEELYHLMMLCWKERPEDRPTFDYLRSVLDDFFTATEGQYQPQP
Chain of Tyrosine-protein kinase Lck (P06239 whole entry): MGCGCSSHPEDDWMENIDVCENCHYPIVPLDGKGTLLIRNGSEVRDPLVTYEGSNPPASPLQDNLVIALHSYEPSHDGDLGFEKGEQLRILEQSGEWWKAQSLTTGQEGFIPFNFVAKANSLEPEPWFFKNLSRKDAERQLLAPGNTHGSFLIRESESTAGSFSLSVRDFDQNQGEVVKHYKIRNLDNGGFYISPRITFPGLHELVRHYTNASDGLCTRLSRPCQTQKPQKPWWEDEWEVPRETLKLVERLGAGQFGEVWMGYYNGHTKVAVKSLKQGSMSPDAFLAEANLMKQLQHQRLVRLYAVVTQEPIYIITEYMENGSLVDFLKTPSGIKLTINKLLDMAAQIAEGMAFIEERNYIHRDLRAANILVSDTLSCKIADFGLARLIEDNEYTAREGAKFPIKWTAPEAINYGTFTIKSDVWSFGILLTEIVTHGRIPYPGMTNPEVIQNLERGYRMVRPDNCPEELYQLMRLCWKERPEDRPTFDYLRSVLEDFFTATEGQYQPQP
Chain of Tyrosine-protein kinase Lyn (P07948 whole entry): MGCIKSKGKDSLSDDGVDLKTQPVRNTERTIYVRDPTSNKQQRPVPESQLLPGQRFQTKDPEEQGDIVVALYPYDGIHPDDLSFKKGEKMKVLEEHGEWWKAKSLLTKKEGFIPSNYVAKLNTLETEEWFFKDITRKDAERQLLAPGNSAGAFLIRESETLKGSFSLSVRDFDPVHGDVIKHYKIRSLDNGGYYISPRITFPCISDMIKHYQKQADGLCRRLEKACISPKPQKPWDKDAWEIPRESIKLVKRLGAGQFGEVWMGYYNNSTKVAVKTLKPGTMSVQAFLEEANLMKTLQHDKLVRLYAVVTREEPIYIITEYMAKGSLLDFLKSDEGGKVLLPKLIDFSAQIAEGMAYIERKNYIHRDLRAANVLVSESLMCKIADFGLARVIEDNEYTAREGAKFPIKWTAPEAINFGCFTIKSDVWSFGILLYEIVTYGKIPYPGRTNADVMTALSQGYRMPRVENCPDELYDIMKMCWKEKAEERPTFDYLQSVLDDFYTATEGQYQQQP
Chain of Tyrosine-protein kinase Fgr (P09769 whole entry): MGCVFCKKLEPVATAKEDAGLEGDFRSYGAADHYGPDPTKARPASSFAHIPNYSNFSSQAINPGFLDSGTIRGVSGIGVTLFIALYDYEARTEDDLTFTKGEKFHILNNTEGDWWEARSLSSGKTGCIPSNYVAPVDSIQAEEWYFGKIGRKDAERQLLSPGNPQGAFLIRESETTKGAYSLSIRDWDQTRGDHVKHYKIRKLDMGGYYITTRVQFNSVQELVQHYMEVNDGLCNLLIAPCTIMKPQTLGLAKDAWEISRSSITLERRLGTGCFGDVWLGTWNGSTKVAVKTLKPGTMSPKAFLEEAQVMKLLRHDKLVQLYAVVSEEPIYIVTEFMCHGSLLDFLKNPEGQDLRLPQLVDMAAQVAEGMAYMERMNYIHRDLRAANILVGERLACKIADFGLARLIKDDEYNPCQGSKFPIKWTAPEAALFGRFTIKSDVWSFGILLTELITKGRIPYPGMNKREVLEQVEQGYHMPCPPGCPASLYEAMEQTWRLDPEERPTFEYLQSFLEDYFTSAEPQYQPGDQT
Chain of Tyrosine-protein kinase Yes (P07947 whole entry): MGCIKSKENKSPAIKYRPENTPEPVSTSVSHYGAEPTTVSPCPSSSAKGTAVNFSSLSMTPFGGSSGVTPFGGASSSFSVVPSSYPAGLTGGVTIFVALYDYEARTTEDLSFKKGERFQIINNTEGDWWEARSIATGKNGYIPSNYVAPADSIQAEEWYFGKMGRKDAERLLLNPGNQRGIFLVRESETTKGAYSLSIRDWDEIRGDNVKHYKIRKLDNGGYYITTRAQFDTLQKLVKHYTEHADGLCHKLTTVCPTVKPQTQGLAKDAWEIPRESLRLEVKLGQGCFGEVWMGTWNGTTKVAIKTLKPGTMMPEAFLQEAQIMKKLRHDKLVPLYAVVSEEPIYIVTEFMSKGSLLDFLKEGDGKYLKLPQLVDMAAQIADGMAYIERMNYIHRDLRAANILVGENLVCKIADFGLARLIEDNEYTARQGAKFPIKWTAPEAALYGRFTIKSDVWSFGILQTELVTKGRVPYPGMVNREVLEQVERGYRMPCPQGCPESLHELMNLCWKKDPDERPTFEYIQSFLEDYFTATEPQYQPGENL
Chain of Receptor tyrosine-protein kinase erbB-2 (P04626 whole entry): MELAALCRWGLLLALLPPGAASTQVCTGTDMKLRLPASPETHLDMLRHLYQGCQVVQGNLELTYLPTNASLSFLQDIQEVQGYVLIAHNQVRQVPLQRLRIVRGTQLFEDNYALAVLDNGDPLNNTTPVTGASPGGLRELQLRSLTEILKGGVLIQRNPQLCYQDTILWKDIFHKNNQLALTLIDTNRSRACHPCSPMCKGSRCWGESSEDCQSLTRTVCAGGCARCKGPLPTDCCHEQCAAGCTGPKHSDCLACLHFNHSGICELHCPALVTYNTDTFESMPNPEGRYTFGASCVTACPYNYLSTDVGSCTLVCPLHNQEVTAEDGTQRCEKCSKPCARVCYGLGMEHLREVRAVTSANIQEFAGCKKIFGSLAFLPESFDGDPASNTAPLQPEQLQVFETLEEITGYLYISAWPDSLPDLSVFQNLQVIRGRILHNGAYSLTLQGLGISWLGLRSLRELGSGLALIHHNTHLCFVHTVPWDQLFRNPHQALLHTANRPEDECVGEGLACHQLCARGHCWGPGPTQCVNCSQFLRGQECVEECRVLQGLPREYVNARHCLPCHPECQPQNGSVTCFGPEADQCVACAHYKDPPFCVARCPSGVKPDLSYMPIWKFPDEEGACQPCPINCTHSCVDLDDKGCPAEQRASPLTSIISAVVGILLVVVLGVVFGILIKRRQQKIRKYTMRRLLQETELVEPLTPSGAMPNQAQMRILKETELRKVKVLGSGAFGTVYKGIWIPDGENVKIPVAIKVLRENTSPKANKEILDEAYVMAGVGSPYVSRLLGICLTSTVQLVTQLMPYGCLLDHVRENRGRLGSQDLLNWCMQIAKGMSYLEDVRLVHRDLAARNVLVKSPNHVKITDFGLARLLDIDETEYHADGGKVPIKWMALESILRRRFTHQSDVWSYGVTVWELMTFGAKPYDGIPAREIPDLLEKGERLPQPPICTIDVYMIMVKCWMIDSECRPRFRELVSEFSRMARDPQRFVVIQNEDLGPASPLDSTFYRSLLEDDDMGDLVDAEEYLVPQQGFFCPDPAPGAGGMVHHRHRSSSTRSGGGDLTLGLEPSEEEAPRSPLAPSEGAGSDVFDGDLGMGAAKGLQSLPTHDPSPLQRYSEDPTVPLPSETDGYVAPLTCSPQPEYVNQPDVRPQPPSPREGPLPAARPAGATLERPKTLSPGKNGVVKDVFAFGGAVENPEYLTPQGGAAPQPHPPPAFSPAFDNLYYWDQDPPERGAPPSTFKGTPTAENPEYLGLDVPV
Chain of Proto-oncogene tyrosine-protein kinase Src (P12931 2-536 limits assumed): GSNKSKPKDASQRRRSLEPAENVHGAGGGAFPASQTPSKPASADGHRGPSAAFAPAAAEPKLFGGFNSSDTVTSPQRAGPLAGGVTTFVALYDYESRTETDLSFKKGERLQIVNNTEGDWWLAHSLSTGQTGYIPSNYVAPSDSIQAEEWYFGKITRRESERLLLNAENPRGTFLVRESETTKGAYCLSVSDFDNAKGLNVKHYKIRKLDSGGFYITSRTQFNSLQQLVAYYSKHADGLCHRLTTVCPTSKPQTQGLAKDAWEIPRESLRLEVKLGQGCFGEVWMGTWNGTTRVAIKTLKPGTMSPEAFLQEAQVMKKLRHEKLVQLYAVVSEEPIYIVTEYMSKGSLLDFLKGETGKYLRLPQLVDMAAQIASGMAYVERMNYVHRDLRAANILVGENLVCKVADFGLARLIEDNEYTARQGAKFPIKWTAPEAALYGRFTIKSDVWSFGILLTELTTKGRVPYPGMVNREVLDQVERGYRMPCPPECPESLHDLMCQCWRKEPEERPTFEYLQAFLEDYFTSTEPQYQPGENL

Row | SMILES | IC50 [2] [µM] | IC50 [3] [µM] | further results
1 | Cc1cccc(Cl)c1NC(=O)c1cnc(NC(=O)C2CCCC2)s1 | 1.34 | – | –
2 | Cc1cc(Nc2ncc(C(=O)Nc3c(C)cccc3Cl)s2)nc(C)n1 | 0.001 | 0.08 | ED50 [4]: 5 mg/kg; Vss [5]: 12 L/kg; IC50 [6]: 0.004 µM; IC50 [7]: 0.67 µM; IC50 [8]: > 10 µM; Ki [1]: 0.00013 µM; IC50 [9]: 0.0008 µM; IC50 [10]: 0.5 µM; inhibition in vivo at 60 mg/kg [11]: 90%; IC50 [12]: 0.002 µM; IC50 [13]: < 0.002 µM
3 | Cc1cccc(C)c1NC(=O)c1cnc(Nc2cccnn2)s1 | 0.0003 | 0.35 | –
4 | Cc1cccc(Cl)c1NC(=O)c1cnc(Nc2cccnc2)s1 | 0.0067 | 0.87 | –
5 | Cc1cnc(Nc2ncc(C(=O)Nc3c(C)cccc3Cl)s2)c(C)n1 | 0.0063 | 0.57 | –
6 | Cc1cccc(C)c1NC(=O)c1cnc(Nc2ccccn2)s1 | 0.0012 | 0.18 | –
7 | Cc1cc(C)c(NC(=O)c2sc(N)nc2C)c(C)c1 | – | > 10 | –
8 | Cc1cccc(Cl)c1NC(=O)c1sc(NC(=O)c2cccs2)nc1C | 0.13 | – | –
9 | Cc1cccc(Cl)c1NC(=O)c1cnc(Nc2ccccn2)s1 | 0.0012 | 0.14 | –
10 | Cc1cccc(Cl)c1NC(=O)c1cnc(NC(=O)c2cccs2)s1 | 2.23 | – | –
11 | Cc1nc(Nc2ncc(C(=O)Nc3c(C)cccc3Cl)s2)cc(N2CCN(CCO)CC2)n1 [DASATINIB] | – | 0.003 | –
12 | Cc1nc(Nc2ncc(C(=O)Nc3c(C)cccc3Cl)s2)cc(N2CCOCC2)n1 | 0.0013 | 0.005 | –
13 | Cc1cccc(Cl)c1NC(=O)c1cnc(NC(=O)C2CC2)s1 | – | 0.884 | –
14 | Cc1cccc(Cl)c1NC(=O)c1cnc(NC(=O)c2ccsc2)s1 | 0.017 | > 2 | –
15 | Cc1cccc(Cl)c1NC(=O)c1cnc(Nc2ccncc2)s1 | 0.0094 | 0.27 | –
16 | Cc1cccc(Cl)c1NC(=O)c1cnc(Nc2cc(N3CCOCC3)ncn2)s1 | 0.0005 | 0.003 | –

Row | SMILES | IC50 [2] [µM] | IC50 [3] [µM] | further results
17 | Cc1cc(C)c(NC(=O)c2sc(NC(=O)Nc3ccccc3)nc2C)c(C)c1 | 0.16 | – | IC50 [1]: 0.09 µM
18 | Cc1nc(NCCCN2CCOCC2)cc(Nc2ncc(C(=O)Nc3c(C)cccc3Cl)s2)n1 | 0.0007 | 0.007 | –
19 | Cc1cccc(Cl)c1NC(=O)c1cnc(Nc2cccnn2)s1 | 0.004 | 0.35 | –
20 | Cc1cc(C)nc(Nc2ncc(C(=O)Nc3c(C)cccc3Cl)s2)n1 | 0.05 | – | –
21 | Cc1nc(NC(=O)OC(C)(C)C)sc1C(=O)Nc1ccccc1 | – | – | inhibition [14]: 28%
22 | Cc1nc(Nc2ncc(C(=O)Nc3c(C)cccc3Cl)s2)cc(N2CCC(CO)CC2)n1 | 0.0007 | 0.004 | –
23 | Cc1nc(NCCO)cc(Nc2ncc(C(=O)Nc3c(C)cccc3Cl)s2)n1 | 0.0002 | 0.023 | –
24 | Cc1ccnc(Nc2ncc(C(=O)Nc3c(C)cccc3Cl)s2)c1 | 0.0005 | 0.08 | –
25 | Cc1cccc(Cl)c1NC(=O)c1cnc(Nc2cccc(NCCO)n2)s1 | < 0.0002 | 0.075 | –
26 | Cc1cccc(Cl)c1NC(=O)c1cnc(Nc2cccc(NCCCn3ccnc3)n2)s1 | < 0.0005 | 0.002 | –
27 | Cc1ccc(NC(=O)c2sc(NC(=O)OC(C)(C)C)nc2C)c(C)c1 | – | – | IC50 [1]: 27.4 µM
28 | Cc1cc(C)c(NC(=O)c2sc(NC(=O)OCc3ccccc3)nc2C)c(C)c1 | – | – | IC50 [1]: 33.3 µM
29 | Cc1cccc(Nc2ncc(C(=O)Nc3c(C)cccc3Cl)s2)n1 | 0.0006 | 0.11 | –
30 | Cc1cccc(Cl)c1NC(=O)c1cnc(Nc2cccc(NCCCN3CCOCC3)n2)s1 | 0.0005 | 0.008 | –
31 | Cc1cc(C)c(NC(=O)c2cnc(Nc3cnccn3)s2)c(C)c1 | 0.0049 | 0.5 | –

Second part, led by results:

Row | IC50 [2] [µM] | SMILES | IC50 [3] [µM] | further results
32 | 0.48 | CC(=O)Nc1nc(C)c(C(=O)Nc2c(C)cc(C)cc2C)s1 | – | IC50 [1]: 0.51 µM
33 | 0.003 | Cc1cc(C)c(NC(=O)c2cnc(Nc3cc(C)nc(C)n3)s2)c(C)c1 | 0.14 | –
34 | 0.004 | Cc1cc(C)nc(Nc2ncc(C(=O)Nc3c(C)cccc3Cl)s2)c1 | 0.14 | –
35 | 0.005 | Cc1cc(C)c(NC(=O)c2cnc(Nc3ccccn3)s2)c(C)c1 | 0.51 | –
36 | 12.1 | Cc1cc(C)c(NC(=O)c2sc(NC(=O)C(C)(C)C)nc2C)c(C)c1 | – | –
37 | 0.18 | Cc1cc(C)c(NC(=O)c2sc(NC(=O)c3ccsc3)nc2C)c(C)c1 | – | –
38 | 1.2 | Cc1cc(C)c(NC(=O)c2sc(NC(=O)c3ccoc3)nc2C)c(C)c1 | – | –
39 | 0.39 | Cc1cccc(Cl)c1NC(=O)c1sc(NC(=O)c2ccsc2)nc1C | – | –
40 | 0.13 | Cc1cc(C)c(NC(=O)c2sc(NC(=O)NCc3ccccc3)nc2C)c(C)c1 | – | IC50 [1]: 0.1 µM
41 | 1.3 | Cc1cc(C)c(NC(=O)c2sc(NC(=O)NC(C)(C)C)nc2C)c(C)c1 | – | –
